Our source for the inhibition, IC50 and Ratio IC50 values is ChEMBL document CHEMBL1287669, “Inhibitors selective for HDAC6 in enzymes and cells” (Bioorg Med Chem Lett, 2010).

In experiment [1] the target is T1, Protein deacetylase HDAC6 (Homo sapiens) (UniProt Q9UBN7).
T1 sequence (whole entry): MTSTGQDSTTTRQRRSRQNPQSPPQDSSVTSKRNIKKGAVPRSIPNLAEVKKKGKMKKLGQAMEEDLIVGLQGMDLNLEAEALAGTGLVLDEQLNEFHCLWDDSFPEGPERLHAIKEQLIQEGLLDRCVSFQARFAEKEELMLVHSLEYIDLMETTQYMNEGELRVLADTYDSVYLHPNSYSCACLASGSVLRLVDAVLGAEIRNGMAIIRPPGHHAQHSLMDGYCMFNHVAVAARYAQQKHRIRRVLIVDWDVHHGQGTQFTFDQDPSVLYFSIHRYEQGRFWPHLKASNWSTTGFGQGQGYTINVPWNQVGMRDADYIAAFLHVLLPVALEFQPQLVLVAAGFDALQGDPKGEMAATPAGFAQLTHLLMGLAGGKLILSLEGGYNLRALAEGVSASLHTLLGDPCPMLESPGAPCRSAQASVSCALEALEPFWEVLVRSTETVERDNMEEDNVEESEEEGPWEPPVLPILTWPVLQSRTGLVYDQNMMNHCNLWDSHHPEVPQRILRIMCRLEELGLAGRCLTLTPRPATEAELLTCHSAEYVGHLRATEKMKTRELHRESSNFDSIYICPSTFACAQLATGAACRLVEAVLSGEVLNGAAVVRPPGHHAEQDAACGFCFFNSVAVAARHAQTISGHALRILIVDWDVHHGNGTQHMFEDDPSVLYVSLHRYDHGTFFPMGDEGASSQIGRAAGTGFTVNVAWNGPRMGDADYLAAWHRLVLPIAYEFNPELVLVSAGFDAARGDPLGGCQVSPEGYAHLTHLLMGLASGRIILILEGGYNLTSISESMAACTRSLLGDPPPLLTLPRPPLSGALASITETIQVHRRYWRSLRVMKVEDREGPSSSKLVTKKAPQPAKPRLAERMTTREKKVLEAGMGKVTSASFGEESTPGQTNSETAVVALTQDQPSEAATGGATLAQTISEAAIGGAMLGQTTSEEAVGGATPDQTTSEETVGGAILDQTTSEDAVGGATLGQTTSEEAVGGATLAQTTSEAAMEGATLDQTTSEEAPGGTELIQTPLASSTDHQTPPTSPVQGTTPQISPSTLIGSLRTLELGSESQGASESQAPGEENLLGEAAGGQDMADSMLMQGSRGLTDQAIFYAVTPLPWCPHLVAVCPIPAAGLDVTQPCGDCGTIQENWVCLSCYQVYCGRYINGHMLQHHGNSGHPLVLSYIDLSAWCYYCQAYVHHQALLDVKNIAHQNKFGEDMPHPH
As to the kind of experiment: Inhibition of recombinant human HDAC6 at 1 uM using Boc-Lys(Ac)-AMC as substrate by fluorometric analysis.

The target of experiment [2] is T2, Histone deacetylase 1 (Homo sapiens, UniProt Q13547). As to the kind of experiment: Inhibition of recombinant human HDAC1 using Cbz-Lys(TFAc)-AMC as substrate by fluorometric analysis.
T2 sequence (Q13547 whole entry): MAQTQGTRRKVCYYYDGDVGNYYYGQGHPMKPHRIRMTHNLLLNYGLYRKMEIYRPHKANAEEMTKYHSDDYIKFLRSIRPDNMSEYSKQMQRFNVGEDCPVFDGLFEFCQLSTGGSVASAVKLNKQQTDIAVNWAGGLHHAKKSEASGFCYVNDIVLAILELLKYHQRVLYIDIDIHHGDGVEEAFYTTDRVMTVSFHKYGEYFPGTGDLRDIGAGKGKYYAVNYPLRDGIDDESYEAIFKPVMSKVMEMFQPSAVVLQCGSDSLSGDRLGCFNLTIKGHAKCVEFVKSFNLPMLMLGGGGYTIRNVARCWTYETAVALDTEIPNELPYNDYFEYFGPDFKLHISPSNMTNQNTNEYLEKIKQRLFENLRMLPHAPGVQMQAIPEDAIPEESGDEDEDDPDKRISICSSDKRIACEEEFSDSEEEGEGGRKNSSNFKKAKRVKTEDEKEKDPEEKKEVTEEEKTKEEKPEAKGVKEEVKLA
In experiment [3] the target is T2, Histone deacetylase 1. As to the kind of experiment: Inhibition of recombinant human HDAC1 using Ac-RHKK(Ac)-ACC as substrate by fluorometric analysis.
For experiment [4], the target named is T3, Protein deacetylase HDAC6 (Homo sapiens, UniProt Q9UBN7).
T3 sequence (Q9UBN7 whole entry): T1 sequence (whole entry)
Kind of experiment: Inhibition of recombinant human HDAC6 using Boc-Lys(Ac)-AMC as substrate by fluorometric analysis.

Experiment [5] has as its target T3, Protein deacetylase HDAC6. Kind of experiment: Inhibition of recombinant human HDAC6 using Ac-RHKK(Ac)-ACC as substrate by fluorometric analysis.
Experiment [6] is filed under the species Homo sapiens. Kind of experiment: Selectivity index, IC50 for recombinant human HDAC6 to IC50 for recombinant human HDAC1.
Experiment [7] addresses T2, Histone deacetylase 1. As to the kind of experiment: Inhibition of human HDAC1 in PMA-differentiated THP1 cells assessed as hyperacetylation of histone H3 after 4 hrs by Western blotting. Type of experiment: cell-based. Particulars: THP-1.

A word on the inhibition: it is the share of the control response that was lost under treatment. In general, IC50 refers to the midpoint of a concentration-inhibition curve.

Structures are written as SMILES. The source made the active and inactive calls. The rule behind the calls is not given here.

Turning to `COC(=O)CCCC[C@H](NC(=O)OC(C)(C)C)C(=O)NC1CCCC1`, the inhibition in experiment [1] came to 40%. In the case of `O=C(O)CCCC[C@H](NC(=O)OCc1ccccc1)C(=O)NC1CCCC1`, in experiment [1], the inhibition was 20%. With `CC(C)(C)OC(=O)N[C@@H](CCCCCC(=O)NO)C(=O)NC1CCCC1`, the inhibition in experiment [1] came out at 99%. Besides, the IC50 is 1420 nM in experiment [2], 3570 nM in experiment [3], 26 nM in experiment [4] and 27 nM in experiment [5].

For the compound `O=C(CCCCCn1c2ccccc2c2ccccc21)NO`, the IC50 in experiment [3] worked out at 3070 nM; in experiment [5], 41 nM. The Ratio IC50 in experiment [6] was found to be 74. On to `CC(C)(C)OC(=O)N[C@@H](CCCCO)C(=O)NC1CCCC1`, for which the inhibition in experiment [1] amounted to 50%. On the same count and under the same terms, in the case of `COC(=O)CCCCC[C@H](NC(=O)OCc1ccccc1)C(=O)NC1CCCC1` it was 65%; in that of `CC(C)(C)OC(=O)N[C@@H](CCCCCCS)C(=O)NC1CCCC1`, 60%.

As to `CC(C)(C)OC(=O)Nc1ccc(-c2cc(C(=O)NCCCCCCC(=O)NO)no2)cc1`, the IC50 in experiment [2] was 340 nM; in experiment [3] it was 3570 nM. As to `CC(C)(C)OC(=O)N[C@@H](CCCCCCO)C(=O)NC1CCCC1`, the inhibition in experiment [1] is 3%. The same measure, in the same setting: the same measure for `COC(=O)CCCCC[C@H](NC(=O)OC(C)(C)C)C(=O)NC1CCCC1`: 60%. For the compound `CC(C)(C)OC(=O)N[C@@H](CCCCCS)C(=O)NC1CCCC1`, in experiment [1], the inhibition was determined as 98%. In addition, the IC50 in experiment [2] worked out at 1730 nM; in experiment [4], 54 nM. Also, the inhibition entry in experiment [7] is “Active”. Consider `CN(C)c1ccc(C(=O)N[C@@H](CCCCCC(=O)NO)C(=O)Nc2cccc3cccnc23)cc1`, for which the results for the IC50 in experiment [2] and in experiment [4] were 21 nM and 943 nM, respectively. Consider `CC(C)(C)OC(=O)N[C@@H](CCCCCC(=O)O)C(=O)NC1CCCC1`, for which the inhibition in experiment [1] is 45%. For `O=C(CCCCC[C@H](NC(=O)c1cc2ccccc2[nH]1)C(=O)Nc1cccc2cccnc12)NO`, the results for the half-maximal inhibitory concentration (IC50) in experiment [2] and in experiment [4] were 48 nM and 107 nM, respectively.

Consider `CC(C)(C)OC(=O)N[C@@H](CCCCCO)C(=O)NC1CCCC1`, for which the inhibition in experiment [1] came out at 80%. Moreover, the IC50 in experiment [2] is greater than 10000 nM; in experiment [4], 240 nM.

As for `O=C(O)CCCCC[C@H](NC(=O)OCc1ccccc1)C(=O)NC1CCCC1`, the inhibition in experiment [1] is 40%.
